In patent US11602534B2, “Pyrimidine derivative kinase inhibitors” (HEFEI INSTITUTES OF PHYSICAL SCIENCE, CHINESE ACADEMY OF …, priority 2017, dated 2023):

Key:
Type in all cases: cell-based, human
protein kinase FLT3 = experiment: Phosphorylation of FLT3 in AML cells; conditions: MV-4-11, MOLM-13 and MOLM-14 cell lines; 4 hours; compounds 0.01-3 μM, PKC412 1 μM
Description: (§1) In cells having FLT3 gene and/or FLT3/ITD mutant gene, specifically, human acute myeloid leukemia cells MV4-11 (expressing FLT3/ITD mutant gene) cell strain and human acute myeloid leukemia cells MOLM-13 and MOLM-14 (expressing FLT3/ITD mutant gene and wild-type FLT3 gene) cell strains, Compound 5, Compound 135 and a FLT3 kinase inhibitor, PKC412 (purchased from Hao Yuan Chemexpress Company, Shanghai), which was used as the control, were evaluated for their effects in cells on phosphorylation of FLT3 and FLT3/ITD protein kinase and phosphorylation of the closely-related STATS protein which is downstream of FLT3 signaling pathways, as well as their effects on phosphorylation of other relevant protein kinases such as ERK and AKT, by assaying a number of cellular biochemical and functional endpoints. In addition, the effects on C-Myc and phosphorylation of the transcription factor NF-κB subunit p65 was also examined (FIGS. 1a-1f). Compound 5 and Compound 135 at different concentrations (0 μM, 0.01 μM, 0.03 μM, 0.1 μM, 0.3 μM, 1 μM, 3 μM in DMSO) and the FLT3 kinase inhibitor PKC412 (1 μM in DMSO) were used to treat acute myeloid leukemia cells MV-4-11, MOLM13 and MOLM-14 that had FLT3 and/or FLT3/ITD gene for 4 hours, respectively, and then the samples were collected. The effects of the compounds on the phosphorylation of proteins such as STATS, C-Myc, ERK, NF-κB p65, AKT in cells were tested (FIGS. 1a-1f).

C-Myc = experiment: Degradation of C-Myc in AML cells; conditions: MV-4-11, MOLM13 and MOLM-14; 4 hours; compounds 0.01-3 μM, PKC412 1 μM
Description: as §1

[1] = Phosphorylation of STATS downstream of FLT3 in AML cells; conditions: MV-4-11, MOLM13 and MOLM-14; 4 hours; compounds 0.01-3 μM, PKC412 1 μM
Description: as §1

CO[C@@H]1[C@H](N(C)C(=O)c2ccccc2)C[C@H]2O[C@]1(C)n1c3ccccc3c3c4c(c5c6ccccc6n2c5c31)C(=O)NC4 [PKC412, reference compound]
strongly inhibited: phosphorylation of the protein kinase FLT3 (protein kinase FLT3) | degradation of C-Myc (C-Myc) | phosphorylation of STATS [1]
